Assay results taken from ChEMBL document CHEMBL5385916, “Discovery of a novel series of pyridone amides as NaV1.8 inhibitors” (Bioorg Med Chem Lett, 2024).
The source made the active and inactive calls. No cut-off for these calls is given here.

Columns and labels:
[1] = Selectivity ratio of binding affinity to Nav1.8 (unknown origin) expressed in HEK293T cells assessed as retention time to binding affinity to Nav1.5 (unknown origin) expressed in HEK293T cells assessed as retention time; assay type: cell-based
[2] = molecular target: Sodium channel protein type 5 subunit alpha (Homo sapiens, UniProt Q14524); assay: Binding affinity to Nav1.5 (unknown origin) expressed in HEK293T cells assessed as retention time by cell membrane chromatography analysis; assay type: cell membranes
[3] = molecular target: T1, Sodium channel protein type 10 subunit alpha (Homo sapiens, UniProt Q9Y5Y9); assay: Binding affinity to Nav1.8 (unknown origin) expressed in HEK293T cells assessed as retention time by cell membrane chromatography analysis; assay type: cell membranes
Target sequence in this assay (Q9Y5Y9 whole entry, looked up): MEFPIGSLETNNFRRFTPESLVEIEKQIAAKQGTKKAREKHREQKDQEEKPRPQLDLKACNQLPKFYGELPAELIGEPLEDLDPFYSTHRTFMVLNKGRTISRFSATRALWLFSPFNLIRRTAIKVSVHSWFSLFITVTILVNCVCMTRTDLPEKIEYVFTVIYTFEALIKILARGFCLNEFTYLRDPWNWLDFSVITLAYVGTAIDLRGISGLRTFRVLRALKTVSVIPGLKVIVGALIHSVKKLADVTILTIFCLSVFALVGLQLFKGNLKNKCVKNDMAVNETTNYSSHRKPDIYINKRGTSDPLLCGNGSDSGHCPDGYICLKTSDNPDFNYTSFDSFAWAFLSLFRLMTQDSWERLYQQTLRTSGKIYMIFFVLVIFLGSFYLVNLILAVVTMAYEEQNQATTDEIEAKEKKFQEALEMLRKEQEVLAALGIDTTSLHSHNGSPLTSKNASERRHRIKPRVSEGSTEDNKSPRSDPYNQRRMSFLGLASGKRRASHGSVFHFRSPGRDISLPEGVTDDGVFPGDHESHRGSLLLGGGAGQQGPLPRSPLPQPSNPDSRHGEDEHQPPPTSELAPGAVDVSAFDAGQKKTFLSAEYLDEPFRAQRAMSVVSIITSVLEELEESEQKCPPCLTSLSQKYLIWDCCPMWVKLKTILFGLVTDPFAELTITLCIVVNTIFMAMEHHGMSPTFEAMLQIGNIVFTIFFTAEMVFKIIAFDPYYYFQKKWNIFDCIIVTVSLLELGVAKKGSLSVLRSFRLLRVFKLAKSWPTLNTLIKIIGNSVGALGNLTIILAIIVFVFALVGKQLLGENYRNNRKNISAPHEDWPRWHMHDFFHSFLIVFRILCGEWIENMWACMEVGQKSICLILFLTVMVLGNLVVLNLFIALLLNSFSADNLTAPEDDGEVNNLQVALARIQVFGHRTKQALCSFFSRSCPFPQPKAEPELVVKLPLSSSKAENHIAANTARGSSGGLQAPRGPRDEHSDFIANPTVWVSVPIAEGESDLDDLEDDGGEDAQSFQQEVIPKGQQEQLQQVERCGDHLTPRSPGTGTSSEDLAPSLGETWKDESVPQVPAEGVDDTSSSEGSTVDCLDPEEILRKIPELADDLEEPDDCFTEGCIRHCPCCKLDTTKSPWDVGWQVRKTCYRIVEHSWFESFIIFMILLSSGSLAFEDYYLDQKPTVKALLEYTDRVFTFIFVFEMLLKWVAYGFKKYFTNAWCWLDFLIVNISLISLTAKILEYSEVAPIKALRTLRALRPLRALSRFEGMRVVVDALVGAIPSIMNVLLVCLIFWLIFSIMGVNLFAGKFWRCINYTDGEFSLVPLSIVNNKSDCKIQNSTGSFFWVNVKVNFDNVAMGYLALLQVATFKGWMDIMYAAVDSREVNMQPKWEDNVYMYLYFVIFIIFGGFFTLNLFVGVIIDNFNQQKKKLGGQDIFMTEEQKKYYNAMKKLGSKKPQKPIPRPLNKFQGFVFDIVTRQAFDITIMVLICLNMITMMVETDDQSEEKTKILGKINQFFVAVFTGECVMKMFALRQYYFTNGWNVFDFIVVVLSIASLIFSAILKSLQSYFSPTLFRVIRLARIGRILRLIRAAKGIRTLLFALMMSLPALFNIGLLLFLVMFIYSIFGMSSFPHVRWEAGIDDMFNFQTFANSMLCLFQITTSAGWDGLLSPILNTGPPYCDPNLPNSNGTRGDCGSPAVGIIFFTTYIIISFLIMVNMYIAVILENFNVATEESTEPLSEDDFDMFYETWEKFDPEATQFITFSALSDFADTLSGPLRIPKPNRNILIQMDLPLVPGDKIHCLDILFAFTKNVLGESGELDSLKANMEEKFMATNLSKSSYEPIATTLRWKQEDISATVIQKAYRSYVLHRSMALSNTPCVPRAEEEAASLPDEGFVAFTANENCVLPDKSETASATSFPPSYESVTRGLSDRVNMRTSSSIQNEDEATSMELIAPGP

Mus musculus [4] = assay: Analgesic activity in CFA-induced inflammatory pain mouse model assessed as paw withdrawal response to von frey stimuli at 100 microg/kg, ip; assay type: functional, organism-based; settings: dose 100.0 µg/kg
[5] = molecular target: T1, Sodium channel protein type 10 subunit alpha; assay: Inhibition of Nav1.8 in HEK293 cells under half inaction state; assay type: cell-based
Mus musculus [6] = assay: Analgesic activity in cold pain hypersensitivity mouse model at 100 microg/kg, ip measured for 8 days; assay type: functional, organism-based; settings: dose 100.0 µg/kg, time 8.0 day
[7] = molecular target: T1, Sodium channel protein type 10 subunit alpha; assay: Inhibition of Nav1.8 (unknown origin) at 10 uM under resting state by whole-cell patch clamp analysis relative to control
Target sequence in this assay (Q9Y5Y9 whole entry, looked up): as above

Mus musculus [8] = assay: Analgesic activity in CFA-induced inflammatory pain mouse model assessed as paw withdrawal response to von frey stimuli at 100 microg/kg, po administered for 8 days and measured upto 7 hrs; assay type: functional, organism-based; settings: dose 100.0 µg/kg, time <= 199.0 hrs
Mus musculus [9] = assay: Analgesic activity in chronic constriction injury mouse model at 100 microg/kg, ip administered for 10 to 14 days; assay type: functional, organism-based; settings: dose 100.0 µg/kg, time 10-14 day
[10] = molecular target: T1, Sodium channel protein type 10 subunit alpha; assay: Inhibition of Nav1.8 in HEK293 cells under resting state; assay type: cell-based
Mus musculus [11] = assay: Analgesic activity in chronic constriction injury mouse model assessed as paw withdrawal response to von frey stimuli at 100 microg/kg, ip administered for 8 days and measured upto 9 hrs; assay type: functional, organism-based; settings: dose 100.0 µg/kg, time <= 201.0 hrs
[12] = Toxicity in mouse assessed as adverse effects at 100 microg/kg, ip administered for 8 days and measured upto 9 hrs; assay type: organism-based; settings: in vivo, 0.1 mg/kg, 201 h, dose 100 µg/kg
Mus musculus [13] = assay: Analgesic activity in CFA-induced inflammatory pain mouse model assessed as paw withdrawal response to von frey stimuli at 100 microg/kg, ip measured for 9 hrs; assay type: functional, organism-based; settings: dose 100.0 µg/kg
Mus musculus [14] = assay: Analgesic activity in chronic constriction injury mouse model assessed as fold increase in AUC at 100 microg/kg, ip administered for 8 days relative to model group; assay type: functional; settings: dose 100 µg/kg, time 8 day
Mus musculus [15] = assay: Analgesic activity in CFA-induced inflammatory pain mouse model assessed as paw withdrawal response to von frey stimuli at 100 microg/kg, ip measured for 5 hrs; assay type: functional, organism-based; settings: dose 100.0 µg/kg
[16] = molecular target: T1, Sodium channel protein type 10 subunit alpha; assay: Inhibition of Nav1.8 (unknown origin) at 10 uM under half inaction state by whole-cell patch clamp analysis relative to control
Target sequence in this assay (Q9Y5Y9 whole entry, looked up): as above

Chain of Sodium channel protein type 5 subunit alpha (Q14524 whole entry): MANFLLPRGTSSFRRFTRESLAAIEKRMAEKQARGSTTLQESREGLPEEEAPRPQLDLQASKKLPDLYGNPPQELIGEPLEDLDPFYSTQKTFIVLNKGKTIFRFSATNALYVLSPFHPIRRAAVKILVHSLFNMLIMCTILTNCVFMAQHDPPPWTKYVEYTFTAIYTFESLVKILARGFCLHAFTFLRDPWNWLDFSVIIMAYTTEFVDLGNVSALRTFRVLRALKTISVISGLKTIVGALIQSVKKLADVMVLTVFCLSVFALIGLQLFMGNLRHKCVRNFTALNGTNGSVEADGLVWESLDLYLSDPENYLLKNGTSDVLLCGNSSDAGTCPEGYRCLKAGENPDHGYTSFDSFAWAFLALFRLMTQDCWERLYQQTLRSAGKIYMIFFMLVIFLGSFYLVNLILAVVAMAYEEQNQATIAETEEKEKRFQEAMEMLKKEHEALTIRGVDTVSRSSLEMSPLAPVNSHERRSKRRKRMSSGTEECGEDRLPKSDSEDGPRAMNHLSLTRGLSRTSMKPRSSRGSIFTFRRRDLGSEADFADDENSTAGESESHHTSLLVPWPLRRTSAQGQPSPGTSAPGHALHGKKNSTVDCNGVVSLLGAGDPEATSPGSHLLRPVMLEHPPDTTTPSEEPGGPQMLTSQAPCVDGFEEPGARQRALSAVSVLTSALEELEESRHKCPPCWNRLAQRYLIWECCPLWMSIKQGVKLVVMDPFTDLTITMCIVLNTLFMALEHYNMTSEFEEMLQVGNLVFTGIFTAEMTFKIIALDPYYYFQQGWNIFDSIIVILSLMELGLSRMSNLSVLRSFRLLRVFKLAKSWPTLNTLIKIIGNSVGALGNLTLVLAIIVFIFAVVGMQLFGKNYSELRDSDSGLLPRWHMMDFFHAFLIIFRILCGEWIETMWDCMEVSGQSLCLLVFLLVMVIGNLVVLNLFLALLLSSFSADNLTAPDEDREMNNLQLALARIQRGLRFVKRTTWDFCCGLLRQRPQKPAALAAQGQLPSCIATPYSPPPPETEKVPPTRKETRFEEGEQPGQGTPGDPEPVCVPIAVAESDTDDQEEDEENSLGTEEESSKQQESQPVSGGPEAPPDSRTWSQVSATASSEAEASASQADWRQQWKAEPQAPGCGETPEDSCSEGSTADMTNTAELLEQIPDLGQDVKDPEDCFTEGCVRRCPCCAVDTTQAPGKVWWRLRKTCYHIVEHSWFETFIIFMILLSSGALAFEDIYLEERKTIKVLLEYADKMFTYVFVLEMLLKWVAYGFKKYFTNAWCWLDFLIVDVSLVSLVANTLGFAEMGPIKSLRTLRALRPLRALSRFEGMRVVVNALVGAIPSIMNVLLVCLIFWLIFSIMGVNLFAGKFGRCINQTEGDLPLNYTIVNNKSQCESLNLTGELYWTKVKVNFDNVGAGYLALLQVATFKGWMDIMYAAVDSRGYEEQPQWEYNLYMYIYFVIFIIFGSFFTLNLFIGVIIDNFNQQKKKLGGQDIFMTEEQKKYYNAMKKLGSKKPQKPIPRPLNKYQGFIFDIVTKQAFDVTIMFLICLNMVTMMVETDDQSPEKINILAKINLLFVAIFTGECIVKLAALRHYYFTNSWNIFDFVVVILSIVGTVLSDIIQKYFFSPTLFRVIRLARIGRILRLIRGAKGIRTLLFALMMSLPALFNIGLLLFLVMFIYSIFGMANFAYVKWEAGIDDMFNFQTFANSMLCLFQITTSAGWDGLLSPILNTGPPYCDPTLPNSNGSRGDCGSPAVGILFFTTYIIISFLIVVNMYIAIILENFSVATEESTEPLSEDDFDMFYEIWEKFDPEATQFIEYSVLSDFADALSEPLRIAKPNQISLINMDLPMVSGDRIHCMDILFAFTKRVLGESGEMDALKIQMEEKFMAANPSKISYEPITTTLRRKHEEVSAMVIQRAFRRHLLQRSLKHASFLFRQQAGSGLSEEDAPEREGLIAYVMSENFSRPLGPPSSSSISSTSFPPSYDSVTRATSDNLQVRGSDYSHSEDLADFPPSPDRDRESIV

Row | Compound | Retention time [3] [min] | Selectivity ratio [1] | Retention_time [2] [min] | Activity (Mus musculus [4]) | further results
1 | O=C(Nc1cc[nH]c(=O)c1)c1ccc(C(F)(F)F)cc1OC1CC=CC1 | 10.1 | 0.61 | 16.4 |  | 
2 | O=C(Nc1cc[nH]c(=O)c1)c1ccc(C(F)(F)F)cc1Oc1ccc(F)nc1 | 2.4 | 0.92 | 2.6 |  | 
3 | Cc1cc(F)ccc1Oc1cc([N+](=O)[O-])ccc1C(=O)Nc1cc[nH]c(=O)c1 | 4.5 | 0.52 | 4.5 |  | 
4 | CN1CCN(c2cc(C(F)(F)F)ccc2C(=O)Nc2cc[nH]c(=O)c2)CC1 | 53.8 | 41.4 | 1.3 | Active | 
5 | O=C(Nc1cc[nH]c(=O)c1)c1ccc(C(F)(F)F)cc1Oc1ccccc1 | 4.7 | 0.55 | 8.6 |  | 
6 | COc1cc(NC(=O)c2ccc([N+](=O)[O-])cc2Oc2ccc(F)cc2C)ccn1 | 4.6 | 0.62 | 4.6 |  | 
7 | O=C(Nc1cc[nH]c(=O)c1)c1ccc(C(F)(F)F)cc1Sc1ccc(F)cc1 | 9.2 | 0.57 | 16.1 | Active | inhibition [7]: 87.5%; Activity (Mus musculus [13]): Active; Activity (Mus musculus [15]): Active; inhibition [16]: 88.8%
8 | O=C(Nc1cc[nH]c(=O)c1)c1ccc(C(F)(F)F)cc1OC1CCC(F)(F)CC1 | 3.8 | 0.66 | 5.8 |  | 
9 | Cc1cc(F)ccc1Oc1cc(C(F)(F)F)ccc1C(=O)Nc1ccncc1 | 30 | 10 | 3 | Active | 
10 | Cc1cc(F)ccc1Oc1cc(C(F)(F)F)ccc1C(=O)Nc1ccc2cc[nH]c2c1 | > 60 | 1 | > 60 | Active | inhibition [7]: -0.26%; inhibition [16]: 1.55%
11 | COc1cc(NC(=O)c2ncc(C(F)(F)F)cc2Oc2ccc(F)cc2C)ccn1 | 22 | 1.79 | 12.3 | Active | inhibition [7]: 82.5%; Activity (Mus musculus [13]): Active; Activity (Mus musculus [15]): Active; inhibition [16]: 84.5%

Second part, led by results:

Row | Retention time [3] [min] | Compound | Selectivity ratio [1] | Retention_time [2] [min] | Activity (Mus musculus [4]) | further results
12 | 11.8 | Cc1cc(F)ccc1Oc1cc(C(F)(F)F)ccc1C(=O)Nc1cc[nH]c(=O)c1 | 0.57 | 20.6 |  | 
13 | 6.1 | COc1cc(NC(=O)c2ccc(C(F)(F)F)cc2Oc2ccc(F)cc2C)ccn1 | 0.34 | 17.8 |  | 
14 | 56.1 | Cc1cc(F)ccc1Oc1cc(C(F)(F)F)ccc1C(=O)NCc1ccccc1 | 0.94 | > 60 |  | 
15 | 10.5 | O=C(Nc1cc[nH]c(=O)c1)c1ccc(C(F)(F)F)cc1N1CCC(C(F)(F)F)CC1 | 0.9 | 11.7 | Active | IC50 [5]: 472 nM; inhibition ([5]; dose 0.1-10 µM): Dose-Dependent Effect; Activity (Mus musculus [6]): Active; inhibition [7]: 93.4%; Activity (Mus musculus [8]): Active; Activity (Mus musculus [9]): Active; IC50 [10]: 513 nM; inhibition ([10]; dose 0.1-10 µM): Dose-Dependent Effect; Activity (Mus musculus [11]): Active; Activity [12]: Non-Toxic; Activity (Mus musculus [13]): Active; fold change (FC) (Mus musculus [14]): 2; Activity (Mus musculus [15]): Active; inhibition [16]: 92.2%
16 | 1.6 | O=C(Nc1cc[nH]c(=O)c1)c1ccc(C(F)(F)F)cc1Oc1ccncc1 | 0.94 | 1.7 |  | 
17 | 36.5 | Cc1cc(F)ccc1Oc1cc(C(F)(F)F)ccc1C(=O)Nc1cccc(O)c1 | 5.14 | 7.1 |  | 
18 | 4.6 | COc1cccc(NC(=O)c2ccc(C(F)(F)F)cc2Oc2ccc(F)cc2C)c1 | 0.63 | 7.3 |  | 
19 | 6 | Cc1cc(F)ccc1Oc1cc(C(F)(F)F)ccc1C(=O)NCc1cc[nH]c(=O)c1 | 0.66 | 9.1 |  | 
20 | 5.8 | Cc1cc(F)ccc1Oc1cc(C(F)(F)F)ccc1C(=O)Nc1ccccc1 | 0.79 | 7.3 |  | 
